{"source": "the supplement of paper PMC10307832", "assay_in_all_cases": "relative viability (nuclei count vs DMSO), 5 days (fraction); higher = more cells survive", "key": {"[1]": {"compound": "Cc1ccc2nc(NCCN)c3ncc(C)n3c2c1 + C[C@@H](Oc1cc(-c2cnn(C3CCNCC3)c2)cnc1N)c1c(Cl)ccc(F)c1Cl [Crizotinib] (partner 1 µM)", "in_short": "(§1)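 Lung cancer cell lines were pin-tool dosed in 1536-well plates on the day after seeding, with either a lone drug or a fixed anchor-drug dose plus five library-drug doses (not always all listed) in √10 steps. Nuclei were counted on 4× images after 5 days. Relative viability is the ratio of treated-well to vehicle-well nuclei counts, with each value a median of duplicate plates.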"}, "[2]": {"compound": "Cc1ccc2nc(NCCN)c3ncc(C)n3c2c1 + CC(C)C[C@H](NC(=O)[C@H](Cc1ccccc1)NC(=O)c1cnccn1)B(O)O [Bortezomib] (partner 0.002 µM)", "in_short": "as §1"}, "[3]": {"compound": "Cc1ccc2nc(NCCN)c3ncc(C)n3c2c1 + O=C(CCCCCCC(=O)Nc1ccccc1)NO [Vorinostat] (partner 1 µM)", "in_short": "as §1"}, "[4]": {"compound": "Cc1ccc2nc(NCCN)c3ncc(C)n3c2c1 + CCNC(=O)c1noc(-c2cc(C(C)C)c(O)cc2O)c1-c1ccc(CN2CCOCC2)cc1 [Luminespib] (partner 0.01 µM)", "in_short": "as §1"}}}
{"cell line": "UMC-11", "values": [{"measurement": "relative viability", "setting": "[1]; first compound 0.04 µM", "value": 0.7}, {"measurement": "relative viability", "setting": "[1]; first compound 0.1265 µM", "value": 0.57}, {"measurement": "relative viability", "setting": "[1]; first compound 0.4 µM", "value": 0.6}, {"measurement": "relative viability", "setting": "[1]; first compound 1.265 µM", "value": 0.646}, {"measurement": "relative viability", "setting": "[1]; first compound 4 µM", "value": 0.481}, {"measurement": "relative viability", "setting": "[2]; first compound 0.04 µM", "value": 0.818}, {"measurement": "relative viability", "setting": "[2]; first compound 0.1265 µM", "value": 0.809}, {"measurement": "relative viability", "setting": "[2]; first compound 0.4 µM", "value": 0.667}, {"measurement": "relative viability", "setting": "[2]; first compound 1.265 µM", "value": 0.795}, {"measurement": "relative viability", "setting": "[2]; first compound 4 µM", "value": 0.671}, {"measurement": "relative viability", "setting": "[3]; first compound 0.04 µM", "value": 0.421}, {"measurement": "relative viability", "setting": "[3]; first compound 0.1265 µM", "value": 0.344}, {"measurement": "relative viability", "setting": "[3]; first compound 0.4 µM", "value": 0.372}, {"measurement": "relative viability", "setting": "[3]; first compound 1.265 µM", "value": 0.371}, {"measurement": "relative viability", "setting": "[3]; first compound 4 µM", "value": 0.357}, {"measurement": "relative viability", "setting": "[4]; first compound 0.04 µM", "value": 1.02}, {"measurement": "relative viability", "setting": "[4]; first compound 0.1265 µM", "value": 0.834}, {"measurement": "relative viability", "setting": "[4]; first compound 0.4 µM", "value": 1}, {"measurement": "relative viability", "setting": "[4]; first compound 1.265 µM", "value": 0.996}, {"measurement": "relative viability", "setting": "[4]; first compound 4 µM", "value": 0.894}]}
